This note sets out measurements from patent US8017780B1, “Therapeutic compounds and uses thereof” (Myrexis, Inc., priority 2008, dated 2011).

The target of this assay is T1, purified human Hsp90.
T1 construct: purified human Hsp90 (Stressgen, SPP-770)
The assay is described as follows: Hsp90 binding assay: displacement of BODIPY-labeled geldanamycin by fluorescence polarization. Particulars: BODIPY-GM 10 nM, purified human Hsp90 30 nM, overnight at room temperature; read-out: GM Displacement From Purified Hsp90 measured by FP. How it is done: The binding of exemplary compounds to purified Hsp90 can be assayed by measuring the displacement of BODIPY-labeled geldanamycin (BODIPY-GM) from purified human Hsp90, using a fluorescence polarization assay adapted from Kim et al. (Journal of Biomolecular Screening […]. Compound dilutions (in 100% DMSO) are added to black-bottom 96-well plates (Greiner; 2% DMSO final), and equal volumes of BODIPY-GM (10 nM final) and purified human Hsp90 (Stressgen, SPP-770; 30 nM final) in assay buffer (20 mM HEPES-KOH pH 7.3, 50 mM KCl, 5 mM MgCl2, 20 mM Na2MoO4, 0.01% NP-40, 0.1 mg/mL bovine gamma globulin [Invitrogen, P2045], 2 mM DTT) are added sequentially to yield a final volume of 50 microliters. Plates are incubated overnight at room temperature. Parallel and perpendicular fluorescence measurements are read (LJL BioSystems Analyst AD plate reader) at excitation/emission wavelengths of 485/530 nm. Background fluorescence (buffer only) is subtracted, and fluorescence polarization (FP) values, expressed in mP units, are calculated from parallel and perpendicular fluorescence readings as follows: FP=(parallel−perpendicular)/(parallel+perpendicular)*1000.
Percent inhibition is calculated by normalizing the FP values to those obtained in parallel reactions containing DMSO and subtracting these normalized values from 100%. Intrinsic compound fluorescence is independently monitored, and FP data points confounded by compound fluorescence are excluded from the analysis.
`CN(C)c1cc2c(cc1Sc1nc3c(N)nccc3n1CCC1CCN(C=O)CC1)OCO2` [Example 8]: the IC50 came to 0.11 µM.
Turning to `C[C@H](O)C(=O)N1CCC(CCn2c(Sc3cc4c(cc3N(C)C)OCO4)nc3c(N)nccc32)CC1` [Example 10, (2S)-1-[4-(2-{4-Amino-2-[(6-(dimethylamino)-1,3-benzodioxol-5-yl)sulfanyl]-1H-imidazo[4,5-c]pyridin-1-yl}ethyl)piperidin-1-yl]-2-hydroxypropan-1-one], the IC50 was determined as 0.11 µM.
On to `CC(=O)N1CCC(CCn2c(Sc3cc4c(cc3Br)OCO4)nc3c(N)nccc32)CC1` [Example 2, 1-[4-(2-{4-Amino-2-[(6-bromo-1,3-benzodioxol-5-yl)sulfanyl]-1H-imidazo[4,5-c]pyridin-1-yl}ethyl)piperidin-1-yl]ethanone], for which the IC50 came out at 5 µM.
As for `Nc1nccc2c1nc(Sc1cc3c(cc1Br)OCO3)n2CCC1CCN(C=O)CC1` [Example 1, 4-(2-[4-Amino-2-[(6-bromo-1,3-benzodioxol-5-yl)sulfanyl]-1H-imidazo[4,5-c]pyridin-1-yl]ethyl)piperidine-1-carbaldehyde], the IC50 was 5 µM.
Turning to `CC(=O)O[C@@H](C)C(=O)N1CCC(CCn2c(Sc3cc4c(cc3N(C)C)OCO4)nc3c(N)nccc32)CC1` [Example 9, (2S)-1-[4-(2-{4-Amino-2-[(6-(dimethylamino)-1,3-benzodioxol-5-yl)sulfanyl]-1H-imidazo[4,5-c]pyridin-1-yl}ethyl)piperidin-1-yl]-1-oxopropan-2-yl acetate], the IC50 was determined as 0.079 µM.
In the case of `Nc1nccc2c1nc(Sc1cc3c(cc1Br)OCO3)n2CCc1ccccc1Cl` [Example 3, 2-[(6-Bromo-1,3-benzodioxol-5-yl)sulfanyl]-1-[2-(2-chlorophenyl)ethyl]-1H-imidazo[4,5-c]pyridin-4-amine] it was 2.4 µM; in that of `C[C@H](O)C(=O)N1CCC(CCn2c(Sc3cc4c(cc3Br)OCO4)nc3c(N)nccc32)CC1` [Example 5, (2S)-1-[4-(2-{4-Amino-2-[(6-bromo-1,3-benzodioxol-5-yl)sulfanyl]-1H-imidazo[4,5-c]pyridin-1-yl}ethyl)piperidin-1-yl]-2-hydroxypropan-1-one], 1 µM.
